# Tests used:
# Assay in all cases: kinome screen (33PanQinase)
# Format in all cases: biochemical
# ACVR1B = molecular target: T1, ACVR1B (Homo sapiens, UniProt P36896)
# T1 construct: purchased Reaction Biology Europe GmbH (formerly ProQinase)
# T1 sequence (P36896 24-505): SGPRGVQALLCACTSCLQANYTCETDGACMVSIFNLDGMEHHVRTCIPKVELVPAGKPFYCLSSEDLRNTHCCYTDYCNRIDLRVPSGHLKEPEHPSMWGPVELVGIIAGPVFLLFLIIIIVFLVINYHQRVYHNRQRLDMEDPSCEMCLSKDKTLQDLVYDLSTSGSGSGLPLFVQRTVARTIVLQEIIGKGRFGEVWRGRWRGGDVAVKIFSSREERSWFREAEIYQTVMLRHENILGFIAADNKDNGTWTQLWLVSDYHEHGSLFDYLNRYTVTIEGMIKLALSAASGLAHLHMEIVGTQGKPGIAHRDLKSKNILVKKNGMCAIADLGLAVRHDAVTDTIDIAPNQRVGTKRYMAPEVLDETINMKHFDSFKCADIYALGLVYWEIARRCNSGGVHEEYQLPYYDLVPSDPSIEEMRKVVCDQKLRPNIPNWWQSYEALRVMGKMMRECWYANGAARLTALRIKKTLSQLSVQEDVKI
# Protocol: (§1) The Kinome Screening was performed by Reaction Biology Europe GmbH (http://reactionbiology.com; Freiburg i. Br., Germany).
# AKT2 = molecular target: T2, AKT2 (Homo sapiens, UniProt P31751)
# T2 construct: purchased Reaction Biology Europe GmbH (formerly ProQinase)
# T2 sequence (P31751 whole entry): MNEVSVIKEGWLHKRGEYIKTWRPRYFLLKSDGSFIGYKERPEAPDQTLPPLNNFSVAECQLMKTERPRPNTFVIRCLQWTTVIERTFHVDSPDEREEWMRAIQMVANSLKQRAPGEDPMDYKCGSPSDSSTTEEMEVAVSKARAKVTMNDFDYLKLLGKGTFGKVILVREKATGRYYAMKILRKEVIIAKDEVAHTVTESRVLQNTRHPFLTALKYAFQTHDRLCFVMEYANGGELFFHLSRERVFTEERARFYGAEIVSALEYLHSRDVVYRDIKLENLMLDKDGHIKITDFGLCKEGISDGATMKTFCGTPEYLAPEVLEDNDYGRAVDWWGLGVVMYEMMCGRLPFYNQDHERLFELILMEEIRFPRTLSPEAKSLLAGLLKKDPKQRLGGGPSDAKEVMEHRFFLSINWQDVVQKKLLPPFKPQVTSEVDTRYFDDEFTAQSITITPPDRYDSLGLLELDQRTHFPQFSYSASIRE
# Protocol: as §1
# BUB1B = molecular target: T3, BUB1B (Homo sapiens, UniProt O60566)
# T3 construct: purchased Reaction Biology Europe GmbH (formerly ProQinase)
# T3 sequence (O60566 whole entry): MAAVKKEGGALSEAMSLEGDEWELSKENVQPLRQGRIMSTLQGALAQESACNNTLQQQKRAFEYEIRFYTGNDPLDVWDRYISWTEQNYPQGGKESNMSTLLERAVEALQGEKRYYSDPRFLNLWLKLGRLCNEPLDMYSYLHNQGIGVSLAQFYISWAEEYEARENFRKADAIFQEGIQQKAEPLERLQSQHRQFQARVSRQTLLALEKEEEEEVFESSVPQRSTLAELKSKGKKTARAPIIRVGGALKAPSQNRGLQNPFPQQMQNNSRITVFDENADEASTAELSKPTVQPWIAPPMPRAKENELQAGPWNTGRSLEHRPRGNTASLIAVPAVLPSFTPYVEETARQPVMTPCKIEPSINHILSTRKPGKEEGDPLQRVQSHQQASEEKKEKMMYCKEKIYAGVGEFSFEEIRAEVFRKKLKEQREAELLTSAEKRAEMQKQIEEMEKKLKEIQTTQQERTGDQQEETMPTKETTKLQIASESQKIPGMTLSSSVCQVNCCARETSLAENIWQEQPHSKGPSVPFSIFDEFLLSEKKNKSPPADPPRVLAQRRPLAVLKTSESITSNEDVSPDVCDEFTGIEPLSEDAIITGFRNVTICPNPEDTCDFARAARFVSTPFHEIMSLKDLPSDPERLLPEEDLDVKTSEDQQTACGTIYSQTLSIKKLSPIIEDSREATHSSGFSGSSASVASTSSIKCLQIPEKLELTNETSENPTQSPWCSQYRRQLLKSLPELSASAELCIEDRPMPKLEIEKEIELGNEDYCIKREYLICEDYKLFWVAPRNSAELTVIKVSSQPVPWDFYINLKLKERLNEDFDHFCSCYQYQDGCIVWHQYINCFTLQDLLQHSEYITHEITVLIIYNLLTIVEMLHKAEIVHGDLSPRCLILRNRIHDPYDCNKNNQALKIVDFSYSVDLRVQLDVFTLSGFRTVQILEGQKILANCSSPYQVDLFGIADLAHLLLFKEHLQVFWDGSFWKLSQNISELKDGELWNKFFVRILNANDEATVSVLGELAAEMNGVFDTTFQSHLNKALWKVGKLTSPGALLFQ
# Protocol: as §1
# JNK3 = molecular target: T4, JNK3 (Homo sapiens, UniProt P53779)
# T4 construct: purchased Reaction Biology Europe GmbH (formerly ProQinase)
# T4 sequence (P53779 whole entry): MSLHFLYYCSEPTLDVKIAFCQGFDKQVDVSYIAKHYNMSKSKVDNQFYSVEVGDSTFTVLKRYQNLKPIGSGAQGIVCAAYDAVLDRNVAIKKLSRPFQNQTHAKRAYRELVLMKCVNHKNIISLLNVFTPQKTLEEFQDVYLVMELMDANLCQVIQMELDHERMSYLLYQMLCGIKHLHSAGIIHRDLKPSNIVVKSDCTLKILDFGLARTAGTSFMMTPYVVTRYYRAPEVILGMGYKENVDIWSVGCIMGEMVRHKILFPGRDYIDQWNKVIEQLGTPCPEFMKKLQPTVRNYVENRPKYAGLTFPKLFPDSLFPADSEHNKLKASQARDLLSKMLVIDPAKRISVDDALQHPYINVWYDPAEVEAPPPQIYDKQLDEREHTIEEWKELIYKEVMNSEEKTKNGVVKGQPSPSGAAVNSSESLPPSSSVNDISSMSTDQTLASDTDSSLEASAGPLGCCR
# Protocol: as §1
# NEK1 = molecular target: T5, NEK1 (Homo sapiens, UniProt Q96PY6)
# T5 construct: purchased Reaction Biology Europe GmbH (formerly ProQinase)
# T5 sequence (Q96PY6 1-1258): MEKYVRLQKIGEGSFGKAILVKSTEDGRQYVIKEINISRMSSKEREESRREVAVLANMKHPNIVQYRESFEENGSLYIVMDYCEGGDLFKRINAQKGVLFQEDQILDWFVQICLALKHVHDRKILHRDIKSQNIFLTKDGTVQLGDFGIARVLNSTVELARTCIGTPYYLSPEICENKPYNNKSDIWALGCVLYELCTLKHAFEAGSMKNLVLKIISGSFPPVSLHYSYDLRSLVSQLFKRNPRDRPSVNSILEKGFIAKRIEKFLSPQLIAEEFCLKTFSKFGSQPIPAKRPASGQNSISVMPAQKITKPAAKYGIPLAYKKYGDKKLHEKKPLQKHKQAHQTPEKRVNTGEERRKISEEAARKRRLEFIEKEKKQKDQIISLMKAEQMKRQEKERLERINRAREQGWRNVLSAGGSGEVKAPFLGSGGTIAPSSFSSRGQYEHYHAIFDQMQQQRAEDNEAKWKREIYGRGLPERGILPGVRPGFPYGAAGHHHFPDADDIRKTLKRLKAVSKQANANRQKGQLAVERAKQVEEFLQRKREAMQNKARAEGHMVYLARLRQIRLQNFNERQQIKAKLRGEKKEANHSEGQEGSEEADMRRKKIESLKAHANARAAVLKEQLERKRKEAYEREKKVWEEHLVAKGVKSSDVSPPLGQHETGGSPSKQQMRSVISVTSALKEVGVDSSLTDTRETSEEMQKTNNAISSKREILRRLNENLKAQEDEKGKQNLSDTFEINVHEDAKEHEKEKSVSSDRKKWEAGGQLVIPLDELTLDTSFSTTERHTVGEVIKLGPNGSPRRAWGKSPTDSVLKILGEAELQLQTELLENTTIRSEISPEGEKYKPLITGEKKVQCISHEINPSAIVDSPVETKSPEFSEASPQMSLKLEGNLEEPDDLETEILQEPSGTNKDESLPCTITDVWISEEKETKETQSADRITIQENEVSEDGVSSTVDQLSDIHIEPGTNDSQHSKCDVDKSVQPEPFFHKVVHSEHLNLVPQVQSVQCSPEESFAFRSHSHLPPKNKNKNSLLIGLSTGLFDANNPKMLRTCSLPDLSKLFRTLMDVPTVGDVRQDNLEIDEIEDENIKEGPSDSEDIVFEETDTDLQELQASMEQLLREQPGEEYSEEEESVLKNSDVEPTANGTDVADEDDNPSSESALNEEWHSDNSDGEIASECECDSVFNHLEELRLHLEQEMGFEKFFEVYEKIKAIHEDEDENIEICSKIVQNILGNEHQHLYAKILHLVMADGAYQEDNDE
# Protocol: as §1
# RIPK5 = molecular target: T6, RIPK5 (Homo sapiens, UniProt Q6XUX3)
# T6 construct: purchased Reaction Biology Europe GmbH (formerly ProQinase)
# T6 sequence (Q6XUX3 1-929): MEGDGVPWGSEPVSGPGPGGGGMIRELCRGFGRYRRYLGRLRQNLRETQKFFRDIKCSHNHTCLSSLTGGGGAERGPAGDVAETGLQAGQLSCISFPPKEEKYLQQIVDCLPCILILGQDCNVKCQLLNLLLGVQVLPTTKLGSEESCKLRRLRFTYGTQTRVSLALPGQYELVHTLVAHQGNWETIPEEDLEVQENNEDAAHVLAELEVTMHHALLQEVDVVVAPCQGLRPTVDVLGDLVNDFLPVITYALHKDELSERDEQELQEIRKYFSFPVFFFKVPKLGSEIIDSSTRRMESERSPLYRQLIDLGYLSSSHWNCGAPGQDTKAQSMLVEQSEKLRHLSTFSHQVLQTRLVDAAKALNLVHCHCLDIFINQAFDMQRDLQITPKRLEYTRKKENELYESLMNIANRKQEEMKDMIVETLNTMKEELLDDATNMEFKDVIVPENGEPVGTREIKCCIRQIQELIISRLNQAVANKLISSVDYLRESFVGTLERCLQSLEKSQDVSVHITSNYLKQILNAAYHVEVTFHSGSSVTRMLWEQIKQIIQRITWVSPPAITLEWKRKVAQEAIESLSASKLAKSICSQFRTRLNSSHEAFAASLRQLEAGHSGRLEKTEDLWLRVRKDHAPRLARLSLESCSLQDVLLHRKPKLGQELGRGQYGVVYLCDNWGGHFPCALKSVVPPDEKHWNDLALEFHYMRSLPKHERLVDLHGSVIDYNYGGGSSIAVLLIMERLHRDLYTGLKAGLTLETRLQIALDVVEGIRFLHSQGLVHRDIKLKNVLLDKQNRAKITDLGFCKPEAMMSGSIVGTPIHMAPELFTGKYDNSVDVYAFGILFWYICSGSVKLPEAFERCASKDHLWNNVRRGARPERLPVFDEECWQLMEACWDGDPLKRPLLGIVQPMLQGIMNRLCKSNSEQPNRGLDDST
# Protocol: as §1
SMILES,residual kinase activity (ACVR1B; 0.3 µM),residual kinase activity (ACVR1B; 3 µM),residual kinase activity (AKT2; 0.3 µM),residual kinase activity (AKT2; 3 µM),residual kinase activity (BUB1B; 0.3 µM),residual kinase activity (BUB1B; 3 µM),residual kinase activity (JNK3; 0.3 µM),residual kinase activity (JNK3; 3 µM),residual kinase activity (NEK1; 0.3 µM),residual kinase activity (NEK1; 3 µM),residual kinase activity (RIPK5; 0.3 µM),residual kinase activity (RIPK5; 3 µM),residual kinase activity (ACVR1B; 0.03 µM),residual kinase activity (AKT2; 0.03 µM),residual kinase activity (BUB1B; 0.03 µM),residual kinase activity (JNK3; 0.03 µM),residual kinase activity (NEK1; 0.03 µM),residual kinase activity (RIPK5; 0.03 µM)
c1ccc(CNc2cc(-c3c[nH]c4ncccc34)ccn2)cc1 [meriolin 36],43 % of control,10 % of control,102 % of control,75 % of control,89 % of control,73 % of control,54 % of control,13 % of control,84 % of control,55 % of control,58 % of control,16 % of control,–,–,–,–,–,–
COc1ccnc2[nH]cc(-c3cc(N)nc(N)c3)c12 [meriolin 16],69 % of control,–,79 % of control,–,81 % of control,–,68 % of control,–,67 % of control,–,86 % of control,–,75 % of control,98 % of control,88 % of control,73 % of control,86 % of control,101 % of control

# From paper PMC11167047 (Cell Death Discovery, 2024)
